{
  "source": "patent US9422262B2",
  "about": "“Compounds and methods for treating diseases mediated by protease activated receptors” (The Broad Institute, Inc., priority 2010, dated 2016)",
  "key": {"[1]": {"molecular_target": "T1, Par1 (thrombin) receptor (Homo sapiens, UniProt P25116)", "T1 construct": "endogenous in cells; host or cells: platelets (platelet-rich plasma; washed platelets from individual donors)", "T1 sequence (P25116 22-425)": "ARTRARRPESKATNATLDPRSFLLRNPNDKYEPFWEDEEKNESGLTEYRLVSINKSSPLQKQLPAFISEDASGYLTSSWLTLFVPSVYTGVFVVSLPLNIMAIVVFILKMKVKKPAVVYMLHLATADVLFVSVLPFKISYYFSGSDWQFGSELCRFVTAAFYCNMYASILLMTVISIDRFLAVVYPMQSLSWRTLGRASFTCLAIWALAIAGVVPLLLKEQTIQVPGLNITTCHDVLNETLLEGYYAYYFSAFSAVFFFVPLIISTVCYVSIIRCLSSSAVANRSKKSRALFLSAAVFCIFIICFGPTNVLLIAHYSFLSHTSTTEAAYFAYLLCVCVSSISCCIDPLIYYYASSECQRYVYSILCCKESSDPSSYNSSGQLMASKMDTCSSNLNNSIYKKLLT", "test": "SFLLRN-mediated granule secretion, platelet-rich plasma, luciferin-luciferase ATP readout (primary assay)", "assay_type": "cell-based", "conditions": "two retests of the probe; platelet-rich plasma; read-out: IC50, SFLLRN-mediated granule secretion", "procedure": "The compounds were tested in two independent IC50 determination experiments using the primary assay measuring SFLLRN-mediated granule secretion. For this assay, platelet-rich plasma is treated with putative inhibitors prior to activation by the SFLLRN peptide, which targets the Par1 (thrombin) receptor. Upon activation, platelets secrete dense granules, which are concentrated with ATP. Platelet activation and possible inhibition are monitored by a luciferin-luciferase assay (CellTiter-Glo without lysis reagent) to measure the ATP secreted from activated platelets. Luminescence measurements are made using a plate reader (Envision, PerkinElmer) capable of detecting luminescence."}, "[2]": {"system": "platelets", "test": "PMA- or Ca2+ ionophore-induced platelet activation (P-selectin, flow cytometry)", "assay_type": "cell-based, human", "conditions": "washed platelets, 6 point dose curve", "procedure": "For these assays, the probe is incubated with washed platelets obtained from individual donors in a 6 point dose curve. Platelets are subsequently stimulated with either PMA or Ca2+ ionophore. After 15 minutes, phycoerythrin-labeled anti-P-selectin antibody (BD Biosciences) is added to the incubation mixture. Following a 20-minute incubation, a sample is analyzed by flow cytometry for staining of P-selectin."}, "[3]": {"system": "platelets", "test": "P-selectin surface expression on platelets activated with other platelet agonists", "assay_type": "cell-based, human", "conditions": "FIG. 1A", "procedure": "(§1) To confirm the specificity of compound 1 for PAR1, platelets were incubated with compound 1 and subsequently activated with a variety of platelet agonists. P-selectin surface expression was monitored to detect platelet activation. […] In contrast, an IC50 for inhibition of other agonists was not reached even at concentrations >30-fold its IC50 for PAR1-mediated secretion. To further evaluate whether PAR1 is the target of compound 1, we tested the ability of the compound to inhibit Ca^2+ flux in HEK293 cells overexpressing recombinant PAR1."}, "[4]": {"system": "permeabilized platelets", "test": "GTP-γ-S induced P-selectin surface expression in permeabilized platelets", "assay_type": "cell-based, human", "conditions": "FIG. 1C", "procedure": "as §1"}, "[5]": {"system": "Gα12 signaling downstream of PAR1", "test": "PAR1-mediated transmembrane resistance (TER) in MDCK cells overexpressing Gα12", "assay_type": "cell-based", "conditions": "FIG. 3B", "excerpt": "(§2) This pattern of inhibition is consistent with that of an allosteric inhibitor. […] This observation raised the possibility that compound 1 blocks PAR1 signaling through Gαq (which mediates platelet aggregation downstream of PAR1), but not Gα12/13 (which mediates shape change downstream of PAR1). A previously identified PAR1 inhibitor, 3,5-difluoro aminoisoxazole (3,5-DFAI), inhibited both shape change and aggregation. Shape change that occurred in the presence of compound 1 was blocked by the Rho kinase inhibitor Y27632, confirming participation of Rho kinase downstream of Gα12/13 in compound-1-resistance shape change (FIG. 3A). […] PAR1-mediated decrease in TER in these cells is dependent on Gα12. […] In contrast, 3,5-DFAI inhibited SFLLRN-mediated decrease in TER (FIG. 3B) and compound 1 inhibited Gαq-mediated Ca^2+ flux in these MDCK cells (FIG. 3C)."}, "[6]": {"system": "Gαq-mediated Ca2+ flux", "test": "SFLLRN-induced Gαq-mediated Ca2+ flux in MDCK cells", "assay_type": "cell-based", "conditions": "FIG. 3C", "excerpt": "as §2"}, "[7]": {"molecular_target": "T2, mouse PAR4 (Mus musculus, UniProt O88634)", "T2 construct": "Aggregation studies using mouse platelets; endogenous in cells; host or cells: mouse platelets", "T2 sequence (O88634 17-396)": "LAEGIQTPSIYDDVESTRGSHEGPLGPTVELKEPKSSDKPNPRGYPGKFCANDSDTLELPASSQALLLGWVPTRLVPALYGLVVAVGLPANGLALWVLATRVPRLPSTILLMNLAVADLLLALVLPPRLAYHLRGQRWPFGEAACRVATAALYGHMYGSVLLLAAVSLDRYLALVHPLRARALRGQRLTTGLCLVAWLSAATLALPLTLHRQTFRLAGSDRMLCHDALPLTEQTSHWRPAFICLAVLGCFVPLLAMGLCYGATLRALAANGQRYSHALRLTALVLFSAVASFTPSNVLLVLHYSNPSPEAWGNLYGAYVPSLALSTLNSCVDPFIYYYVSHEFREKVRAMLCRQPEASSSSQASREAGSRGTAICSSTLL", "test": "PAR4-mediated aggregation of mouse platelets", "assay_type": "cell-based", "conditions": "FIG. 4A"}, "[8]": {"test": "Stability in human plasma", "assay_type": "in vitro ADME", "excerpt": "Since there are also situations in which longer term anticoagulation is desired, we performed further studies in the thrombus formation model to assess analogs of compound 1 that may have a more long-lived effect. […] This instability in mouse plasma may have contributed to its short half-life of efficacy in vivo."}, "[9]": {"molecular_target": "T3, PAR1 (Homo sapiens, UniProt P25116)", "T3 sequence (P25116 22-425)": "T1 sequence (P25116 22-425)", "test": "P-selectin surface expression on washed platelets stimulated with SFLLRN (flow cytometry)", "assay_type": "cell-based", "design": "endogenous in cells; host or cells: platelets (platelet-rich plasma; washed platelets from individual donors)", "procedure": "For this assay, the probe is incubated with washed platelets obtained from individual donors. Platelets are subsequently stimulated with 5 μM SFLLRN. After 15 minutes, phycoerythrin-labeled anti-P-selectin antibody (BD Biosciences) is added to the incubation mixture. Following a 20-minute incubation, a sample is analyzed by flow cytometry for staining of P-selectin.\nP-selectin surface expression was monitored to detect platelet activation."}, "[10]": {"molecular_target": "T3, PAR1", "test": "PAR1-mediated platelet aggregation and shape change", "assay_type": "cell-based", "design": "endogenous in cells; host or cells: platelets (platelet-rich plasma; washed platelets from individual donors)", "conditions": "FIG. 3A", "excerpt": "as §2"}},
  "note": "Several values for one entry are separate records, joined by “and”; a condition that tells them apart may be missing. Equal entries are not always repeated.",
  "data": [
    {"smiles": "CCCC(=O)Nc1cccc(NC(=O)c2ccccc2Br)c1", "note": "[Compound 1]", "values": [
      {"measurement": "IC50", "setting": "[1]", "result": "4.87 µM and 5.28 µM"},
      {"measurement": "effect on Ca2+ ionophore-induced activation of platelets", "setting": "[2]", "result": "did not show any effect"},
      {"measurement": "effect on PMA-induced activation of platelets", "setting": "[2]", "result": "did not show any effect"},
      {"measurement": "concentration tested without reaching an IC50 for other agonists, relative to IC50 for PAR1-mediated secretion", "setting": "[3]", "result": "> 30", "unit": "fold"},
      {"measurement": "IC50 for inhibition of other agonists", "setting": "[3]; P-selectin surface expression", "result": "not reached"},
      {"measurement": "P-selectin surface expression induced by GTP-γ-S", "setting": "[4]", "result": "fails to inhibit"},
      {"measurement": "PAR1-mediated (SFLLRN) change in TER", "setting": "[5]", "result": "failed to inhibit"},
      {"measurement": "Gαq-mediated Ca2+ flux", "setting": "[6]", "result": "inhibited"},
      {"measurement": "PAR4-mediated aggregation of mouse platelets", "setting": "[7]", "result": "inhibits"},
      {"measurement": "stability in human plasma", "setting": "[8]", "result": "good stability"},
      {"measurement": "inhibition of the expression of P-selectin", "setting": "[9]; 1 μM compound, washed platelets, activation with 5 μM SFLLRN", "result": 90, "unit": "%"},
      {"measurement": "IC50", "setting": "[9]; FIG. 1A, read-out: IC50, activation mediated through PAR1 (P-selectin surface expression)", "result": "~0.3", "unit": "µM"},
      {"measurement": "pattern of inhibition of PAR1-mediated platelet activation", "setting": "[9]; varying concentrations of compound and SFLLRN, FIG. 2", "result": "non-competitive inhibition"},
      {"measurement": "PAR1-mediated platelet aggregation", "setting": "[10]", "result": "inhibited"},
      {"measurement": "PAR1-mediated platelet shape change", "setting": "[10]", "result": "failed to inhibit"}
    ]}
  ]
}
